The structures appear in SMILES notation.

One series addresses T1, human P2X3 receptor (Homo sapiens, UniProt P56373).
T1 construct: expressed in transfected cells
T1 sequence (P56373 1-397): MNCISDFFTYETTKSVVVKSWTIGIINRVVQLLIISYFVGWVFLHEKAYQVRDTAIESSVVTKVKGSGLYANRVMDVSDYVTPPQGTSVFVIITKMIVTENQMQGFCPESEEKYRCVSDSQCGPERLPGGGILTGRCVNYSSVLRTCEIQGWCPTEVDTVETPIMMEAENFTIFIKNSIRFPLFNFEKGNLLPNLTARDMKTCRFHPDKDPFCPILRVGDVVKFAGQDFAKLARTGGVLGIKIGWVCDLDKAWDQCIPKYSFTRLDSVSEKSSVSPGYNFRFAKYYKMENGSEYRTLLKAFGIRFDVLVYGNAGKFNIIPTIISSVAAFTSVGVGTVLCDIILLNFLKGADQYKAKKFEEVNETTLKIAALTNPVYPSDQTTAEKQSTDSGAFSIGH
Put plainly: Inhibition of ATP-induced calcium fluorescence (Fluo-3, FDSS 3000) in C6BU-1 cells stably expressing human P2X3 receptor. Particulars: C6BU-1 cell transfected with human P2X3 receptor gene; 40 nM ATP solution; Fluo-3 fluorescence intensity. The class given is cell-based. The method, then:
Stably expressing cell line (C6BU-1 cell transfected with human P2X3 receptor gene (GenBank accession number Y07683)) was used. The cells were seeded in a 96-well microtiter plate at a concentration of 8000 cells/well and cultured in the medium (8.3% fetal bovine serum, 8.3% horse serum, 1% antibiotic and antifungal in DMEM) for one day at 37° C. under 5% carbon dioxide atmosphere. The medium was replaced with 4 μM Fluo-3-AM solution (pH7.5) containing 20 mM HEPES, 137 mM NaCl, 2.7 mM KCl, 0.9 mM MgCl2, 5.0 mM CaCl2, 5.6 mM D-glucose, 2.5 mM probenecid, 10% BSA, and 0.08% Pluronic F-127, and incubated at 37° C. under 5% dioxide carbon atmosphere for one hour. The plate was washed with washing buffer (20 mM HEPES, 137 mM NaCl, 2.7 mM KCl, 0.9 mM MgCl2, 5.0 mM CaCl2, 5.6 mM D-glucose, 2.5 mM probenecid, pH7.5), and each well was added with 40 μL of this buffer. The plate was placed in High-Throughput Screening System FDSS 3000 (Hamamatsu Photonics K.K.). Measurement of fluorescence intensity by FDSS 3000 was started, and 40 μL of DMSO solutions containing different concentrations of the test compound as prepared by dilution with dilution buffer (20 mM HEPES, 137 mM NaCl, 2.7 mM KCl, 0.9 mM MgCl2, 5.0 mM CaCl2, 5.6 mM D-glucose, 2.5 mM probenecid, 0.1% Pluronic F-127, pH7.5) were dispensed to each well through the built-in automatic dispenser. Five minutes after, 40 nM ATP solution (50 μL) prepared by dilution with the dilution buffer was dispensed through the built-in automatic dispenser, and the measurement of fluorescence intensity was continued for 3 min. For each well, the specific maximum fluorescence intensity was calculated as the ratio of the maximum fluorescence intensity after addition of the ATP solution to the fluorescence intensity at the starting of the measurement. […] FDSS software (Hamamatsu Photonics K.K.) was used for calculation of the specific maximum fluorescence intensity. IC50 was calculated using Microsoft™ Excel™ (Microsoft Corporation) and XLfit™ (ID Business Solutions Ltd.).
For `COc1cccc(C2c3c(C)n[nH]c3C(=O)N2c2ccc(Br)cc2)c1` (centres unmarked) [Example I-122], the IC50 is 19300 nM.
Same read-out and setting: the result for `CCOC(=O)c1ccc(N2C(=O)C(=O)C(C(C)=O)C2c2ccccc2)cc1` (centres unmarked) [Example I-72] reads 4790 nM; that for `CC(=O)c1ccc(N2C(=O)C(=O)C(C(=O)c3ccc(Cl)cc3)C2c2ccc(Br)cc2)cc1` (centres unmarked) [Example I-62], 1960 nM.
On the same count and under the same terms, the value for `COc1ccccc1C1C(C(=O)C2CC2)=C(O)C(=O)N1c1ccc(-c2ccon2)cc1` (centres unmarked) [II-45] was 1070 nM.
Same read-out and setting: the result for `COc1ccc(C(=O)C2C(=O)C(=O)N(c3ccc(C(=O)OC(C)C)cc3)C2c2ccccc2)cc1` (centres unmarked) [Example I-21] reads 160 nM; that for `COc1ccccc1C1C(C(=O)C(C)=O)=C(O)C(=O)N1c1ccc(-c2ccon2)cc1` (centres unmarked) [II-123], 2090 nM; that for `COc1ccc(C(=O)C2=C(O)C(=O)N(CCc3ccc(F)cc3)C2c2ccccc2OC)cc1` (centres unmarked) [Example I-273], 2200 nM.
For `O=C1c2[nH]nc(-c3ccc(Cl)cc3)c2C(c2ccc([N+](=O)[O-])cc2)N1c1ccccn1` (centres unmarked) [Example I-118], the half-inhibitory concentration (IC50) was 17800 nM.
The same measure, in the same setting: the result for `CO/N=C/c1ccc(N2C(=O)c3[nH]nc(-c4ccc(OC)cc4)c3C2c2ccccc2OC)cc1` (centres unmarked) [II-13] reads 570 nM.
The same measure, in the same setting: the result for `COc1ccc(C2NC(=O)c3[nH]nc(-c4ccc(C)cc4)c32)cc1OC` (centres unmarked) [Example I-124] reads 22000 nM; that for `O=C(C1=C(O)C(=O)N(c2ccc(-c3ccon3)cc2)C1C1CCCCC1)c1cccnc1` (centres unmarked) [II-75], 370 nM.
Still for that read-out and setting: the result for `C#Cc1ccc(N2C(=O)C(O)=C(C(=O)c3ccc(OC)cc3)C2c2ccc(F)cc2)cc1` (centres unmarked) [II-57] reads 1680 nM.
On to `CCOC(=O)c1ccc(N2C(=O)C(O)=C(C(=O)C3CCC3)C2c2ccccc2)cc1` (centres unmarked) [Example I-53], for which the IC50 was found to be 1280 nM.
Same read-out and setting: the result for `COc1ccc(C(=O)C2=C(O)C(=O)N(c3ccc(C(=O)N(C)C)cc3)C2c2ccccc2)cc1` (centres unmarked) [Example I-74] reads 5920 nM.
Still for that read-out and setting: the value for `CCOC(=O)c1ccc(N2C(=O)C(=NOC)C(C(=O)c3ccc(OC)cc3)C2c2ccccc2)cc1` (centres unmarked) [II-16] was 1510 nM; that for `COc1ccc(-c2n[nH]c3c2C(c2ccccc2)N(c2ccc(C(=O)N(C)C)cc2)C3=O)cc1` (centres unmarked) [II-106] was 2080 nM; that for `CCCCC(=O)C1=C(O)C(=O)N(c2ccc(C(=O)OCC)cc2)C1c1ccccc1` (centres unmarked) [Example I-49] was 1020 nM.
The same measure, in the same setting: the result for `COc1ccc(C(=O)C2=C(O)C(=O)N(c3ccc(Cl)cc3)C2c2ccc(F)cc2)cc1` (centres unmarked) [Example I-66] reads 3460 nM; that for `C#Cc1ccc(N2C(=O)c3[nH]nc(C(C)(C)C)c3C2c2ccc(F)cc2)cc1` (centres unmarked) [II-64], 1310 nM.
As for `CC(=O)Nc1ccc(C(=O)C2=C(O)C(=O)N(c3ccc(-c4ccon4)cc3)C2C2CCCCC2)cc1` (centres unmarked) [II-201], the IC50 was found to be 10 nM.
`CCOC(=O)c1ccc(N2C(=O)C(O)=C(C(=O)C(C)(C)C)C2c2ccccc2)cc1` (centres unmarked) [Example I-28]: the IC50 is 260 nM.
Same read-out and setting: the result for `COc1ccccc1C1C(C(=O)C(C)(C)C)=C(O)C(=O)N1c1ccc(C2=NCCS2)cc1` (centres unmarked) [II-29] reads 590 nM; that for `CCOC(=O)c1ccc(N2C(=O)C(O)=C(C(=O)c3ccco3)C2c2ccccc2)cc1` (centres unmarked) [Example I-77], 8010 nM; that for `CCOC(=O)c1ccc(N2C(=O)C(=O)C(/C(=N\O)c3ccc(OC)cc3)C2c2ccccc2)cc1` (centres unmarked) [Example I-44], 560 nM.
Same read-out and setting: the value for `CC(=O)Nc1ccc(-c2n[nH]c3c2C(C2CCCCC2)N(c2ccc(-c4ccon4)cc2)C3=O)cc1` (centres unmarked) [II-202] was 1620 nM; that for `CCOC(=O)Cc1ccc(N2C(=O)C(O)=C(C(=O)c3ccc(OC)cc3)C2c2ccccc2)cc1` (centres unmarked) [Example I-79] was 8950 nM.
On the same count and under the same terms, the value for `CCOC(=O)c1ccc(N2C(=O)C(=O)C(C(=O)c3ccc(OC)cc3)C2c2ccccc2)cc1` (centres unmarked) [Example I-4] was 20 nM; that for `COc1ccccc1C1c2c(C3CCC3)n[nH]c2C(=O)N1c1ccc(F)cc1` (centres unmarked) [Example I-260] was 5630 nM.
As to `O=C(C1=C(O)C(=O)N(c2ccc(-c3ccon3)cc2)C1C1CCCCC1)c1ccc([N+](=O)[O-])cc1` (centres unmarked) [II-98], the IC50 is 70 nM.
On the same count and under the same terms, the result for `COc1ccc(/C(N)=C2/C(=O)C(=O)N(c3ccc(C(F)(F)F)cc3)C2c2ccccc2)cc1` (centres unmarked) [II-22] reads 2310 nM; that for `COc1ccccc1C1c2c(-c3ccc(C)cc3)n[nH]c2C(=O)N1c1ccc(F)cc1` (centres unmarked) [Example I-95], 560 nM.
On the same count and under the same terms, the result for `CCOC(=O)c1ccc(N2C(=O)C(O)=C(C(=O)c3cccs3)C2c2ccccc2)cc1` (centres unmarked) [Example I-36] reads 380 nM; that for `COc1ccccc1C1c2c(C(C)(C)C)n[nH]c2C(=O)N1c1ccc(-c2cc(CO)no2)cc1` (centres unmarked) [II-171], 950 nM; that for `COc1ccc(-c2n[nH]c3c2C(C2CC2)N(c2ccc(-c4ccon4)cc2)C3=O)cc1` (centres unmarked) [II-217], 1870 nM.
The same measure, in the same setting: the result for `COc1ccccc1C1c2c(CCOCc3ccccc3)n[nH]c2C(=O)N1c1ccc(-c2ccon2)cc1` (centres unmarked) [II-87] reads 1320 nM; that for `COc1ccc(-c2n[nH]c3c2C(c2ccccc2OC)N(CCc2ccc(F)cc2)C3=O)cc1` (centres unmarked) [Example I-278], 1400 nM.
Turning to `CCCCC(=O)C1=C(O)C(=O)N(c2ccc(-c3ccon3)cc2)C1c1ccccc1OC` (centres unmarked) [II-9], the half-inhibitory concentration (IC50) stood at 860 nM.
Same read-out and setting: the result for `CCOc1ccc(C(=O)C2C(=O)C(=O)N(c3ccc(OC)cc3)C2c2ccc(Cl)cc2)cc1` (centres unmarked) [Example I-88] reads 15400 nM.
On to `COc1ccccc1C1c2c(-c3ccc(F)cc3)n[nH]c2C(=O)N1c1ccc(F)cc1` (centres unmarked) [II-5], for which the half-maximal inhibitory concentration (IC50) came to 1370 nM.
Same read-out and setting: the result for `COc1ccccc1C1C(C(=O)CCOCc2ccccc2)=C(O)C(=O)N1c1ccc(-c2ccon2)cc1` (centres unmarked) [II-85] reads 2520 nM; that for `COc1ccc(C(=O)C2=C(O)C(=O)N(c3nc4ccc(Cl)cc4s3)C2C2CCCCC2)cc1` (centres unmarked) [II-181], 330 nM.

System in another series: not given
Assay: not given
Details: not given
`CCCC(CCC)C1C(C(=O)c2ccc(OC)cc2)=C(O)C(=O)N1c1ccc(-c2ccon2)cc1` (centres unmarked) [Example I-220] gave a melting point of 229 to 231 °C.
Still for that read-out and setting: the result for `CCC(CC)C1C(C(=O)c2ccc(OC)cc2)=C(O)C(=O)N1c1ccc(C2=NCCS2)cc1` (centres unmarked) [Example I-234] reads 230 to 233 °C; that for `CCOC(=O)c1ccc(N2C(=O)C(OCc3ccccc3)=C(C(=NO)c3ccc(OC)cc3)C2c2ccccc2)cc1` (centres unmarked) [Example I-225], 196 to 201 °C; that for `CCOC(=O)c1ccc(N2C(=O)C(O)=C(Cc3ccccc3)C2c2ccc(OC)cc2)cc1` (centres unmarked) [Example I-203], 160 to 161 °C.
For the compound `COc1ccc(C(=O)C2=C(O)C(=O)N(c3ccc(-c4ccon4)cc3)C2C2CCN(C(=O)OC(C)(C)C)CC2)cc1` (centres unmarked) [Example I-222], the melting point lay in the range of 247 to 249 °C.
Same read-out and setting: the value for `COc1ccc(C(=O)C2=C(O)C(=O)N(c3ccc(C4=NCCS4)cc3)C2c2ccc(F)cc2)cc1` (centres unmarked) [Example I-216] was 229 to 232 °C.
Same read-out and setting: the value for `CC(C)(C)C(=O)C1/C(=N/O)C(=O)N(c2ccc(-c3ccon3)cc2)C1C1CCCCC1` (centres unmarked) [Example I-193] was 255 to 256 °C; that for `COc1ccc(C(=O)C2=C(O)C(=O)N(c3ccc(-c4ccon4)cc3)C2c2ccccc2)cc1` (centres unmarked) [Example I-50] was 271 to 274 °C; that for `COc1ccc(-c2n[nH]c3c2C(c2ccc(F)cc2)N(c2ccc(-c4ccon4)cc2)C3=O)cc1` (centres unmarked) [Example I-210] was 164 to 166 °C.
In the case of `CC(C)(C)C(=O)C1=C(O)C(=O)N(c2ccc(-c3ccon3)cc2)C1C1CCCCC1` (centres unmarked) [Example I-32, 5-cyclohexyl-4-(2,2-dimethylpropionoyl)-3-hydroxy-1-(4-isoxazol-3-ylphenyl)-1,5-dihydropyrrol-2-one], the melting point lay in the range of 259 to 260 °C.
On the same count and under the same terms, the result for `COc1ccc(-c2n[nH]c3c2C(c2ccc(F)cc2)N(c2ccc(C(F)(F)F)cc2)C3=O)cc1` (centres unmarked) [Example I-228] reads 217 to 218 °C; that for `COc1ccc(C(=O)C2=C(O)C(=O)N(c3ccc(Br)cc3)C2c2ccccc2)cc1` (centres unmarked) [Example I-237], 233 to 236 °C.

These data come from US8497263B2, “Pyrrolinone derivative and pharmaceutical composition comprising the same” (Shionogi & Co., Ltd., priority 2007, dated 2013).
